Assay results: US8192962B2, “Processes for detecting toxic substances” (Daikin Industries, Ltd., priority 2001, dated 2012)

Tested on: Metabolism protein genes
Assay: DNA chip mRNA expression in yeast, metabolism protein genes (Table 7)
Assay type: cell-based, Saccharomyces cerevisiae S288C
Experimental: Yeast (Saccharomyces cerevisiae S288C (α SUC2mal mel gap2 CUP1)) were incubated at 25° C. on YPD medium (yeast extract 1%, polypepton 2%, glucose 2%). One of toxic chemical substances was added to the cells at logarithmic growth phase, and the cells were further incubated for two hours. Cells were cultured without any chemical substance in the same condition, and were used as control. Concentrations of the chemical substances were defined to inhibit the growth of the yeast but not lead to death.
After completion of the incubation, the culture was centrifuged to collect the cells. To the cells, sodium acetate buffer (50 mM sodium acetate, 10 mM EDTA, 1% SDS) was added, and the mixture was shaken at 65° C. for five minutes, followed by returning to room temperature, and obtaining the supernatant, of which the procedures were repeated two times. To the supernatant, ½ amount of a solution of phenol/chloroform was added, and the mixture was centrifuged to give a supernatant, which was added with an equal amount of chloroform, and the mixture was centrifuged to give a supernatant. To the supernatant, an equal amount of isopropanol containing 0.3 M sodium acetate was added, and the mixture was allowed to stand at room temperature for 30 minutes, after which the mixture was centrifuged to give a sediment of the whole RNAs. Seventy % ethanol was added to the sediment, and the mixture was again centrifuged to give a sediment, which was then dried and dissolved in water. mRNA was isolated from the whole RNAs as followings. In view of the fact that a poly A chain is attached to the 3′ terminus of mRNA, a polynucleotide having a poly T structure which was immobilized on the surface of latex beads was used to trap the mRNA, and then the mRNA was washed and eluted with spine column (Oligotex-dT30<Super>mRNA Purification Kit, Takara). Reverse transcription of the mRNA was conducted with a reverse transcriptase (Super Script II Reverse Transcriptase; catalogue No. 18064-014, GibcoBRL) using fluorescence-labeled nucleotides to give cDNAs that were introduced with Cy3-dUTP or Cy5-dUTP during the reverse transcription.
The labeled cDNAs were dissolved in TE buffer (10mM Tris-HCl/1 mM EDTA, pH8.0), and the solution was dropped on the DNA chip containing the whole genes of yeast (DNA Chip Research Inc. Japan) so that the cDNAs were hybridized on the DNA chip at 65° C. for over 12 hours. The fluoresces intensity of the DNA chip was read with a scanner, and the ratio relative to the fluorescence intensity resulting from the absence of chemical substance was estimated as the following, which is shown in Tables 1 to 9: […]

[Cl][Hg][Cl] [(3), HgCl2]
The level of expressed mRNA in the presence of chemical substance/The level of expressed mRNA in the absence of chemical substance (yeast gene YAL012W): 10.4
The level of expressed mRNA in the presence of chemical substance/The level of expressed mRNA in the absence of chemical substance (yeast gene YAL038W): 3.0
level of expressed mRNA in the presence/in the absence of chemical substance (yeast gene YBR003W): 1.0
level of expressed mRNA in the presence/in the absence of chemical substance (yeast gene YBR011C): 2.5
level of expressed mRNA in the presence/in the absence of chemical substance (yeast gene YBR020W): 1.9
The level of expressed mRNA in the presence of chemical substance/The level of expressed mRNA in the absence of chemical substance (yeast gene YBR023C): 1.3
The level of expressed mRNA in the presence of chemical substance/The level of expressed mRNA in the absence of chemical substance (yeast gene YBR029C): 1.8
The level of expressed mRNA in the presence of chemical substance/The level of expressed mRNA in the absence of chemical substance (yeast gene YBR183W): 2.0
The level of expressed mRNA in the presence of chemical substance/The level of expressed mRNA in the absence of chemical substance (yeast gene YBR222C): 1.3
The level of expressed mRNA in the presence of chemical substance/The level of expressed mRNA in the absence of chemical substance (yeast gene YBR256C): 0.6
The level of expressed mRNA in the presence of chemical substance/The level of expressed mRNA in the absence of chemical substance (yeast gene YCL009C): 2.0
The level of expressed mRNA in the presence of chemical substance/The level of expressed mRNA in the absence of chemical substance (yeast gene YCL064C): 0.8
level of expressed mRNA in the presence/in the absence of chemical substance (yeast gene YCR010C): 1.6
level of expressed mRNA in the presence/in the absence of chemical substance (yeast gene YCR034W): 2.5
The level of expressed mRNA in the presence of chemical substance/The level of expressed mRNA in the absence of chemical substance (yeast gene YCR048W): 1.0
The level of expressed mRNA in the presence of chemical substance/The level of expressed mRNA in the absence of chemical substance (yeast gene YCR098C): 1.7
The level of expressed mRNA in the presence of chemical substance/The level of expressed mRNA in the absence of chemical substance (yeast gene YDR019C): 1.7
level of expressed mRNA in the presence/in the absence of chemical substance (yeast gene YDR050C): 2.3
level of expressed mRNA in the presence/in the absence of chemical substance (yeast gene YDR073W): 0.7
level of expressed mRNA in the presence/in the absence of chemical substance (yeast gene YDR123C): 0.4
level of expressed mRNA in the presence/in the absence of chemical substance (yeast gene YDR178W): 3.4
level of expressed mRNA in the presence/in the absence of chemical substance (yeast gene YDR277C): 1.0
level of expressed mRNA in the presence/in the absence of chemical substance (yeast gene YDR284C): 3.0
level of expressed mRNA in the presence/in the absence of chemical substance (yeast gene YDR345C): 5.6
The level of expressed mRNA in the presence of chemical substance/The level of expressed mRNA in the absence of chemical substance (yeast gene YDR380W): 0.8
level of expressed mRNA in the presence/in the absence of chemical substance (yeast gene YDR400W): 2.2
level of expressed mRNA in the presence/in the absence of chemical substance (yeast gene YDR408C): 1.4
level of expressed mRNA in the presence/in the absence of chemical substance (yeast gene YDR483W): 1.3
The level of expressed mRNA in the presence of chemical substance/The level of expressed mRNA in the absence of chemical substance (yeast gene YDR497C): 0.6
The level of expressed mRNA in the presence of chemical substance/The level of expressed mRNA in the absence of chemical substance (yeast gene YDR502C): 2.4
The level of expressed mRNA in the presence of chemical substance/The level of expressed mRNA in the absence of chemical substance (yeast gene YDR516C): 7.8
level of expressed mRNA in the presence/in the absence of chemical substance (yeast gene YEL063C): 2.4
level of expressed mRNA in the presence/in the absence of chemical substance (yeast gene YER015W): 1.1
The level of expressed mRNA in the presence of chemical substance/The level of expressed mRNA in the absence of chemical substance (yeast gene YER026C): 3.3
The level of expressed mRNA in the presence of chemical substance/The level of expressed mRNA in the absence of chemical substance (yeast gene YER053C): 1.9
The level of expressed mRNA in the presence of chemical substance/The level of expressed mRNA in the absence of chemical substance (yeast gene YER069W): 3.3
level of expressed mRNA in the presence/in the absence of chemical substance (yeast gene YER081W): 2.7
The level of expressed mRNA in the presence of chemical substance/The level of expressed mRNA in the absence of chemical substance (yeast gene YER096W): 2.0
level of expressed mRNA in the presence/in the absence of chemical substance (yeast gene YER120W): 2.5
The level of expressed mRNA in the presence of chemical substance/The level of expressed mRNA in the absence of chemical substance (yeast gene YER178W): 3.6
level of expressed mRNA in the presence/in the absence of chemical substance (yeast gene YFL011W): 3.7
The level of expressed mRNA in the presence of chemical substance/The level of expressed mRNA in the absence of chemical substance (yeast gene YFL014W): 5.7
The level of expressed mRNA in the presence of chemical substance/The level of expressed mRNA in the absence of chemical substance (yeast gene YFL030W): 3.1
The level of expressed mRNA in the presence of chemical substance/The level of expressed mRNA in the absence of chemical substance (yeast gene YFL031W): 2.1
The level of expressed mRNA in the presence of chemical substance/The level of expressed mRNA in the absence of chemical substance (yeast gene YFL056C): 2.3
The level of expressed mRNA in the presence of chemical substance/The level of expressed mRNA in the absence of chemical substance (yeast gene YFL057C): 1.5
The level of expressed mRNA in the presence of chemical substance/The level of expressed mRNA in the absence of chemical substance (yeast gene YFR047C): 2.7
level of expressed mRNA in the presence/in the absence of chemical substance (yeast gene YGL012W): 3.0
The level of expressed mRNA in the presence of chemical substance/The level of expressed mRNA in the absence of chemical substance (yeast gene YGL022W): 1.4
level of expressed mRNA in the presence/in the absence of chemical substance (yeast gene YGL115W): 1.2
The level of expressed mRNA in the presence of chemical substance/The level of expressed mRNA in the absence of chemical substance (yeast gene YGL126W): 1.4
level of expressed mRNA in the presence/in the absence of chemical substance (yeast gene YGL205W): 0.7
The level of expressed mRNA in the presence of chemical substance/The level of expressed mRNA in the absence of chemical substance (yeast gene YGL209W): 1.1
The level of expressed mRNA in the presence of chemical substance/The level of expressed mRNA in the absence of chemical substance (yeast gene YGL248W): 0.9
The level of expressed mRNA in the presence of chemical substance/The level of expressed mRNA in the absence of chemical substance (yeast gene YGR037C): 2.2
The level of expressed mRNA in the presence of chemical substance/The level of expressed mRNA in the absence of chemical substance (yeast gene YGR055W): 12.0
level of expressed mRNA in the presence/in the absence of chemical substance (yeast gene YGR096W): 1.1
level of expressed mRNA in the presence/in the absence of chemical substance (yeast gene YGR191W): 1.6
The level of expressed mRNA in the presence of chemical substance/The level of expressed mRNA in the absence of chemical substance (yeast gene YGR194C): 1.3
level of expressed mRNA in the presence/in the absence of chemical substance (yeast gene YGR204W): 2.7
The level of expressed mRNA in the presence of chemical substance/The level of expressed mRNA in the absence of chemical substance (yeast gene YGR256W): 2.3
The level of expressed mRNA in the presence of chemical substance/The level of expressed mRNA in the absence of chemical substance (yeast gene YGR282C): 4.6
level of expressed mRNA in the presence/in the absence of chemical substance (yeast gene YGR288W): 1.0
level of expressed mRNA in the presence/in the absence of chemical substance (yeast gene YHR025W): 2.4
The level of expressed mRNA in the presence of chemical substance/The level of expressed mRNA in the absence of chemical substance (yeast gene YHR111W): 0.8
level of expressed mRNA in the presence/in the absence of chemical substance (yeast gene YHR123W): 1.8
The level of expressed mRNA in the presence of chemical substance/The level of expressed mRNA in the absence of chemical substance (yeast gene YHR137W): 2.4
The level of expressed mRNA in the presence of chemical substance/The level of expressed mRNA in the absence of chemical substance (yeast gene YHR174W): 3.3
The level of expressed mRNA in the presence of chemical substance/The level of expressed mRNA in the absence of chemical substance (yeast gene YHR176W): 1.1
level of expressed mRNA in the presence/in the absence of chemical substance (yeast gene YHR210C): 0.6
level of expressed mRNA in the presence/in the absence of chemical substance (yeast gene YIL006W): 1.4
The level of expressed mRNA in the presence of chemical substance/The level of expressed mRNA in the absence of chemical substance (yeast gene YIL045W): 1.9
The level of expressed mRNA in the presence of chemical substance/The level of expressed mRNA in the absence of chemical substance (yeast gene YIL107C): 1.1
The level of expressed mRNA in the presence of chemical substance/The level of expressed mRNA in the absence of chemical substance (yeast gene YIL154C): 1.9
The level of expressed mRNA in the presence of chemical substance/The level of expressed mRNA in the absence of chemical substance (yeast gene YIL155C): 1.4
The level of expressed mRNA in the presence of chemical substance/The level of expressed mRNA in the absence of chemical substance (yeast gene YIR034C): 2.5
The level of expressed mRNA in the presence of chemical substance/The level of expressed mRNA in the absence of chemical substance (yeast gene YIR036C): 2.6
The level of expressed mRNA in the presence of chemical substance/The level of expressed mRNA in the absence of chemical substance (yeast gene YJL031C): 0.5
The level of expressed mRNA in the presence of chemical substance/The level of expressed mRNA in the absence of chemical substance (yeast gene YJL068C): 3.4
The level of expressed mRNA in the presence of chemical substance/The level of expressed mRNA in the absence of chemical substance (yeast gene YJL088W): 2.2
The level of expressed mRNA in the presence of chemical substance/The level of expressed mRNA in the absence of chemical substance (yeast gene YJL099W): 0.3
level of expressed mRNA in the presence/in the absence of chemical substance (yeast gene YJL121C): 1.9
level of expressed mRNA in the presence/in the absence of chemical substance (yeast gene YJL167W): 1.4
The level of expressed mRNA in the presence of chemical substance/The level of expressed mRNA in the absence of chemical substance (yeast gene YJL172W): 1.8
level of expressed mRNA in the presence/in the absence of chemical substance (yeast gene YJL216C): 2.2
The level of expressed mRNA in the presence of chemical substance/The level of expressed mRNA in the absence of chemical substance (yeast gene YJL219W): 3.1
level of expressed mRNA in the presence/in the absence of chemical substance (yeast gene YJR077C): 2.0
The level of expressed mRNA in the presence of chemical substance/The level of expressed mRNA in the absence of chemical substance (yeast gene YJR137C): 4.6
level of expressed mRNA in the presence/in the absence of chemical substance (yeast gene YJR143C): 2.1
The level of expressed mRNA in the presence of chemical substance/The level of expressed mRNA in the absence of chemical substance (yeast gene YJR148W): 2.0
